Experimental findings from US8501936B2 (priority 2009, dated 2013) are described below.

Test [1] deals with human JAK2 (Homo sapiens (Human), UniProt O60674). Conditions: read-out: JAK2 IC50.
Test [2] concerns the target human FAK (Homo sapiens (Human), UniProt Q05397). The conditions noted are these: read-out: FAK IC50.

Chain of human FAK (Q05397 whole entry): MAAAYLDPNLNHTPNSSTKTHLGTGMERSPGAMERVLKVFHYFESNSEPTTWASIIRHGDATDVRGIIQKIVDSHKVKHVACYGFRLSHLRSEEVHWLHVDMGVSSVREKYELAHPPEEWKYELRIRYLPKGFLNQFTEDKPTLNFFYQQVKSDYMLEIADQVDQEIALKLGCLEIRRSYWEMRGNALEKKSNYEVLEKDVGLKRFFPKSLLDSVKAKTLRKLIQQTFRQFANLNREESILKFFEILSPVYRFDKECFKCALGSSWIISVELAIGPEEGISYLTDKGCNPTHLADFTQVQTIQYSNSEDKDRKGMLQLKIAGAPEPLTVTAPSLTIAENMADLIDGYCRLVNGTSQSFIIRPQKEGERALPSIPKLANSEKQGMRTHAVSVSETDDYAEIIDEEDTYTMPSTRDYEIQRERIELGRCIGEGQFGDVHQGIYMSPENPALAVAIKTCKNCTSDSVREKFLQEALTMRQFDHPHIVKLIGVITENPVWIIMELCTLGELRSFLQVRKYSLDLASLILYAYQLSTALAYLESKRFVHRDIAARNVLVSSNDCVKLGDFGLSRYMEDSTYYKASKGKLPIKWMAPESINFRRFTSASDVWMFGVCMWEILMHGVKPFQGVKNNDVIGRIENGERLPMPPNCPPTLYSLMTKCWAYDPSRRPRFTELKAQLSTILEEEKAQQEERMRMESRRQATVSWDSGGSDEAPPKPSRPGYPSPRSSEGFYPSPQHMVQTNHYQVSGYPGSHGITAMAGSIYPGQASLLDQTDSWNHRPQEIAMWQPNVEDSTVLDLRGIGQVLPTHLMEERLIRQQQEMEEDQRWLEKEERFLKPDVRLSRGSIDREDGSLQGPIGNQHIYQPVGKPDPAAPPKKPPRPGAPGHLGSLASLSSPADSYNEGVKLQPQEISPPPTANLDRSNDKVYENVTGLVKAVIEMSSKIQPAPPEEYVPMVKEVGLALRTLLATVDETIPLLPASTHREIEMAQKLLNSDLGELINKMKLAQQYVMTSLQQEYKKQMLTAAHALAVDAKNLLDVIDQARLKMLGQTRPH
Chain of human JAK2 (O60674 815-1132): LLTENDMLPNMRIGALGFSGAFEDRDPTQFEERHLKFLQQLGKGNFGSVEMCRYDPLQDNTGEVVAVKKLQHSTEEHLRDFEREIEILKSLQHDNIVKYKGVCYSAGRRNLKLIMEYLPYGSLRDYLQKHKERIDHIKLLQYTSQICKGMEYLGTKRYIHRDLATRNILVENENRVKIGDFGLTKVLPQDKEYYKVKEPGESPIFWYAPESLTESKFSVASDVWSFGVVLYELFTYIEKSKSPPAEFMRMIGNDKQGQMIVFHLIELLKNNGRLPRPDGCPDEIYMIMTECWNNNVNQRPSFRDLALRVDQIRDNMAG

What is called IC50 is the concentration that inhibits the measured activity by half. On to `CCOc1ccc(C(F)(F)F)cc1-c1cccn2nc(Nc3ccc4c(c3)CCNCC4)nc12` [Example 319], for which the IC50 amounted to 137 nM in test [1] and 1310 nM in test [2].
For `CCOc1ccc(C(F)(F)F)cc1-c1cccn2nc(Nc3ccc4c(c3)CCN(CCS(C)(=O)=O)CC4)nc12` [Example 320, [8-(2-Ethoxy-5-trifluoromethyl-phenyl)-[1,2,4]triazolo[1,5-a]pyridin-2-yl]-[3-(2-methanesulfonyl-ethyl)-2,3,4,5-tetrahydro-1H-3-benzazepin-7yl)-amine], the values for the IC50 in test [1] and in test [2] were 160 nM and 3000 nM, respectively.
For `CCOc1ccc(C(F)(F)F)cc1-c1cccn2nc(Nc3ccc4c(c3)CCN(CC(=O)N(C)C)CC4)nc12` [Example 321, 2-{7-[8-(2-Ethoxy-5-trifluoromethyl-phenyl)-[1,2,4]triazolo[1,5-a]pyridin-2-ylamino]-1,2,4,5-tetrahydro-3-benzazepin-3-yl}-N,N-dimethyl-acetamide], the IC50 in test [1] turned out to be 223 nM; in test [2], 1780 nM.
On the same counts, the results for `COc1ccc(C(F)(F)F)cc1-c1cccn2nc(Nc3ccc4c(c3)CCN(CCS(C)(=O)=O)CC4)nc12` [Example 322, [3-(2-Methanesulfonyl-ethyl)-2,3,4,5-tetrahydro-1H-3-benzazepin-7-yl]-[8-(2-methoxy-5-trifluoromethyl-phenyl)-[1,2,4]triazolo[1,5-a]pyridine-2-yl]-amine] are 12.7 nM and 572 nM.
For `COc1ccc(F)cc1-c1cccn2nc(Nc3ccc4c(c3)CCN(CC(=O)N(C)C)CC4)nc12` [Example 323, 2-{7-[8-(5-Fluoro-2-methoxy-phenyl)-[1,2,4]triazolo[1,5-a]pyridin-2-ylamino]-1,2,4,5-tetrahydro-3-benzazepin-3-yl}-N,N-dimethyl-acetamide] the same measures were 11.3 nM and 691 nM.
For `COc1cc(F)ccc1-c1cccn2nc(Nc3ccc4c(c3)CCN(CC(=O)N(C)C)CC4)nc12` [Example 324, 2-{7-[8-(4-Fluoro-2-methoxy-phenyl)-[1,2,4]triazolo[1,5-a]pyridin-2-ylamino]-1,2,4,5-tetrahydro-3-benzazepin-3-yl}-N,N-dimethyl-acetamide] the same measures were 47 nM and 3000 nM.
Turning to `FC(F)COc1ccc(C(F)(F)F)cc1-c1cccn2nc(Nc3ccc4c(c3)CCNCC4)nc12` [Example 328], the IC50 in test [1] worked out at 257 nM; in test [2], 999 nM.
On the same counts, the results for `CN(C)C(=O)CN1CCc2ccc(Nc3nc4c(-c5cc(C(F)(F)F)ccc5OCC(F)F)cccn4n3)cc2CC1` [Example 329, 2-(7-{8-[2-(2,2-Difluoro-ethoxy)-5-trifluoromethyl-phenyl]-[1,2,4]triazolo[1,5-a]pyridin-2-ylamino}-1,2,4,5-tetrahydro-3-benzazepin-3-yl)-N,N-dimethyl-acetamide] are 317 nM and 999 nM.
For `COc1cc(Cl)ccc1-c1cccn2nc(Nc3ccc4c(c3)CCN(CC(=O)N(C)C)C4)nc12` [Example 331, 2-{6-[8-(4-Chloro-2-methoxy-phenyl)-[1,2,4]-triazolo[1,5-a]pyridin-2-ylamino]-3,4-dihydro-1H-isoquinolin-2-yl}-N,N-dimethyl-acetamide] the same measures were 21.2 nM and 6500 nM.
On the same counts, the results for `COc1ccc(C(F)(F)F)cc1-c1cccn2nc(Nc3ccc4c(c3)CCN(C(=O)OC(C)(C)C)C4)nc12` [Example 336, 6-[8-(2-Methoxy-5-trifluoromethyl-phenyl)-[1,2,4]triazolo[1,5-a]pyridin-2-ylamino]-3,4-dihydro-1H-isoquinoline-2-carboxylic acid tert-butyl ester] are 1150 nM and 10000 nM.
`COc1ccc(C(F)(F)F)cc1-c1cccn2nc(Nc3ccc4c(c3)CCNC4)nc12` [Example 337, [8-(2-Methoxy-5-trifluoromethyl-phenyl)-[1,2,4]triazolo[1,5-a]pyridine-2-yl]-(1,2,3,4-tetrahydro-isoquinolin-6-yl)-amine]: the values for the IC50 in test [1] and in test [2] were 41.9 nM and 778 nM, respectively.
For `COc1ccc(C(F)(F)F)cc1-c1cccn2nc(Nc3ccc4c(c3)CCN(CC(=O)N(C)C)C4)nc12` [Example 338, 2-{6-[8-(2-Methoxy-5-trifluoromethyl-phenyl)-[1,2,4]-triazolo[1,5-a]pyridin-2-ylamino]-3,4-dihydro-1H-isoquinolin-2-yl}-N,N-dimethyl-acetamide] the same measures were 41.4 nM and 1370 nM.
On the same counts, the results for `CN1CCN(c2cccc(Nc3nc4c(-c5ccc(F)cc5)cccn4n3)c2)CC1` [Example 365, [8-(4-Fluoro-phenyl)-[1,2,4]-triazolo[1,5-a]pyridin-2-yl]-[3-(4-methyl-piperazin-1-yl)-phenyl]-amine] are 29.1 nM and 999 nM.
With `CN(C)C(=O)CN1CCc2ccc(Nc3nc4c(-c5ccccc5OCC(F)F)cccn4n3)cc2CC1` [Example 368, 2-(7-{8-[2-(2,2-Difluoro-ethoxy)-phenyl]-[1,2,4]triazolo[1,5-a]pyridin-2-ylamino}-1,2,4,5-tetrahydro-3-benzazepin-3-yl)-N,N-dimethyl-acetamide], the IC50 is 197 nM in test [1] and 2430 nM in test [2].
For `CS(=O)(=O)c1ccc(-c2cccn3nc(Nc4ccc5c(c4)CCNCC5)nc23)c(OCC(F)F)c1` [Example 370, {8-[2-(2,2-Difluoro-ethoxy)-4-methanesulfonyl-phenyl]-[1,2,4]triazolo[1,5-a]pyridin-2-yl}-(2,3,4,5-tetrahydro-1H-3-benzazepin-7-yl)-amine] the same measures were 61.9 nM and 999 nM.
On the same counts, the results for `CS(=O)(=O)c1ccc(OCC(F)F)c(-c2cccn3nc(Nc4ccc5c(c4)CCNCC5)nc23)c1` [Example 372, {8-[2-(2,2-Difluoro-ethoxy)-5-methanesulfonyl-phenyl]-[1,2,4]triazolo[1,5-a]pyridin-2-yl}-(2,3,4,5-tetrahydro-1H-3-benzazepin-7-yl)-amine] are 600 nM and 10000 nM.
Turning to `CN(C)C(=O)CN1CCc2ccc(Nc3nc4c(-c5cc(S(C)(=O)=O)ccc5OCC(F)F)cccn4n3)cc2CC1` [Example 373, 2-(7-{8-[2-(2,2-Difluoro-ethoxy)-5-methanesulfonyl-phenyl]-[1,2,4]triazolo[1,5-a]pyridin-2-ylamino}-1,2,4,5-tetrahydro-3-benzazepin-3-yl)-N,N-dimethyl-acetamide], the figures for the IC50 in test [1] and in test [2] were 505 nM and 10000 nM, respectively.
On the same counts, the results for `FC(F)(F)c1cccc(-c2cccn3nc(Nc4ccc5c(c4)CCNCC5)nc23)c1` [Example 375, (2,3,4,5-Tetrahydro-1H-3-benzazepin-7-yl)-[8-(3-trifluoromethyl-phenyl)-[1,2,4]triazolo[1,5-a]pyridin-2-yl]-amine] are 42.5 nM and 422 nM.
For `FC(F)COc1ccc(Cl)cc1-c1cccn2nc(Nc3ccc4c(c3)CCNCC4)nc12` [Example 377, {8-[5-Chloro-(2,2-difluoro-ethoxy)-phenyl]-[1,2,4]triazolo[1,5-a]pyridin-2-yl}-(2,3,4,5-tetrahydro-1H-3-benzazepin-7-yl)-amine] the same measures were 44 nM and 443 nM.
On the same counts, the results for `CN(C)C(=O)CN1CCc2ccc(Nc3nc4c(-c5cc(F)ccc5OCC(F)F)cccn4n3)cc2CC1` [Example 378, 2-(7-{8-[2-(2,2-Difluoro-ethoxy)-5-fluoro-phenyl]-[1,2,4]triazolo[1,5-a]pyridin-2-ylamino}-1,2,4,5-tetrahydro-3-benzazepin-3-yl)-N,N-dimethyl-acetamide] are 520 nM and 1250 nM.
On to `CC(C)COc1ccc(C(F)(F)F)cc1-c1cccn2nc(Nc3ccc4c(c3)CCN(CC(=O)N(C)C)CC4)nc12` [Example 380], for which the IC50 in test [1] and in test [2] was 3000 nM throughout.
Consider `CN(C)C(=O)N1CCc2ccc(Nc3nc4c(-c5cc(Cl)ccc5OCC(F)F)cccn4n3)cc2CC1` [Example 382, 7-{8-[5-Chloro-2-(2,2-difluoro-ethoxy)-phenyl]-[1,2,4]triazolo[1,5-a]pyridin-2-ylamino}-1,2,4,5-tetrahydro-3-benzazepine-3-carboxylic acid dimethylamide], for which the IC50 in test [1] was 198 nM; in test [2], 2000 nM.
With `FC(F)COc1ccc(C(F)F)cc1-c1cccn2nc(Nc3ccc4c(c3)CCNCC4)nc12` [Example 384, {8-[2-(2,2-Difluoro-ethoxy)-5-difluoromethyl-phenyl]-[1,2,4]triazolo[1,5-a]pyridin-2-yl}-(2,3,4,5-tetrahydro-1H-3-benzazepin-7-yl)-amine], the IC50 in test [1] came to 203 nM; in test [2] it was 1080 nM.
For `CN(C)C(=O)CN1CCc2ccc(Nc3nc4c(-c5cc(C(F)F)ccc5OCC(F)F)cccn4n3)cc2CC1` [Example 385, 2-(7-{8-[2-(2,2-difluoro-ethoxy)-5-difluoromethyl-phenyl]-[1,2,4]triazolo[1,5-a]pyridin-2-ylamino}-1,2,4,5-tetrahydro-3-benzazepin-3-yl)-N,N-dimethyl-acetamide] the same measures were 270 nM and 1120 nM.
For `CN1CCN(c2cncc(Nc3nc4c(-c5ccc(S(C)(=O)=O)cc5)cccn4n3)n2)CC1` [Example 386, [8-(4-Methanesulfonyl-phenyl)-[1,2,4]triazolo[1,5-a]pyridin-2-yl]-(4-methyl-3,4,5,6-tetrahydro-2H-[1,2′]bipyrazinyl-6′-yl)-amine] the same measures were 29.9 nM and 10000 nM.
For `COc1ccccc1CNc1cccn2nc(Nc3ccc(N4CCN(C)CC4)cc3)nc12` [Example 387, N(8)-(2-Methoxy-benzyl)-N(2)-[4-(4-methyl-piperazin-1-yl)-phenyl]-[1,2,4]triazolo[1,5-a]pyridine-2,8-diamine], the IC50 was 12.3 nM in test [1] and 553 nM in test [2].
For `COc1ccccc1CNc1cccn2nc(Nc3cccc(N4CCN(C)CC4)c3)nc12` [Example 388, N(8)-(2-Methoxy-benzyl)-N(2)-[3-(4-methyl-piperazin-1-yl)-phenyl]-[1,2,4]triazolo[1,5-a]pyridine-2,8-diamine] the same measures were 46 nM and 951 nM.
